Measured values published in patent publication US20150147385A1, “INTRAVENOUS SYNTHETIC CURCUMIN (S-CURCUMIN) FOR THE TREATMENT OF PROLIFERATIVE DISORDERS” (SignPath Pharma, Inc., priority 2013, published 2015).
Converted amounts (≈) assume the structure as drawn. Where two headings read alike, the source gives them in different places.

Experiments:
[1] = system: breast cancer cell line MCF10ACA1H; assay: Scratch assay (wound healing) in MCF10ACA1H; assay type: cell-based, human; conditions: 12 hour exposure
[2] = Solubilities of S-curcumin and C3-complex curcumin in different organic solvents; assay type: physicochemical; conditions: for solubility: organic solvent or mixture, read-out: Conc. (solubility)
Excerpt: Comparison of PLGA C3-complex-curcumin vs PLGA S-curcumin indicated the following differences. The solubilities of 99.2% S-Curcumin in all four solvents. […] This confers improved manufacturing capability, and attributes to different pharmacokinetics and pharmacodynamics in in vivo settings (Table 1). [table]

Solubility compared with C3 complex ([2]; normalized to equal concentrations, ethanol, ethyl acetate, acetone, acetonitrile): greater solubility
solubility ([2]; solvent acetone): 42300 µg/mL (≈ 115 mM)
solubility ([2]; solvent acetonitrile): 5440 µg/mL (≈ 14.8 mM)
solubility ([2]; solvent ethanol): 3800 µg/mL (≈ 10.3 mM)
solubility ([2]; solvent ethyl acetate): 10400 µg/mL (≈ 28.2 mM)
1 g of solvent solubilize in solvent ([2]; solvent acetone): 23.6 mL
Physical appearance of solubility ([2]; solvent acetone): Fully
1 g of solvent solubilize in solvent ([2]; solvent acetonitrile): 184 mL
Physical appearance of solubility ([2]; solvent acetonitrile): Partial
1 g of solvent solubilize in solvent ([2]; solvent ethanol): 263 mL
Physical appearance of solubility ([2]; solvent ethanol): Partial
1 g of solvent solubilize in solvent ([2]; solvent ethyl acetate): 96.2 mL
Physical appearance of solubility ([2]; solvent ethyl acetate): Partial
SMILES: COc1cc(C=CC(=O)CC(=O)C=Cc2ccc(O)c(OC)c2)ccc1O [S-curcumin, 1,7-bis(4-hydroxy-3-methoxyphenyl)-1,6-heptadiene-3,5-dione]
More effective than C3-curcumin in interfering with wound healing [1]: 30%
